Columns and labels:
picrotoxin = assay: Anticonvulsant test against picrotoxin; type: in vivo, mice; settings: Mus musculus, read-out: ED50 PICRO
Description: (§1) The anticonvulsant tests are similar to that described above. […] The number of animals with tonic and/or clonic convulsions was recorded. In the maximal electroshock test, 50 mA of current at 60 Hz was delivered through corneal electrodes for 200 msec to induce tonic seizure. The ability of compounds to abolish the tonic component was defined as the endpoint. General CNS depression potential was determined by a rotorod test 10 minutes after the injection of compounds where the number of mice staying on a rotating (6 rpm) rod for 1 minute in one of the three trials was determined. […] Table 7. Anticonvulsant Activity of Exemplified Neuroactive Steroids and those of Selected Clinically Useful Anticonvulsants in Mice

(+)bicuculline = assay: Anticonvulsant test against (+)bicuculline; type: in vivo, mice; settings: Mus musculus, read-out: ED50 BIC
Description: as §1

strychnine = assay: Anticonvulsant test against strychnine; type: in vivo, mice; settings: Mus musculus, read-out: ED50 STR
Description: as §1

[1] = test system: Bovine Uteral Progesterone Receptors; assay: Inhibition of 3H-progesterone binding, uterus cytosol; settings: competitor 10^-6M; 3H-progesterone 0.15 nM
How it was run: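 Rat uterus cytosol was incubated with 0.15 nM ^3H-progesterone plus test compounds. Values are percent inhibition of specific binding versus a compound-free control incubation.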

Glucocorticoid Receptors = target: T1, Glucocorticoid Receptors (Rattus norvegicus, UniProt P06536); assay: Inhibition of 3H-dexamethasone binding, brain cytosol; parameters: species or system rats; dose or concentration left out as unconfirmed; settings: read-out: % of Inhibition
T1 construct: from tissue; host or cells: rat brain cytosol
T1 sequence (P06536 1-795): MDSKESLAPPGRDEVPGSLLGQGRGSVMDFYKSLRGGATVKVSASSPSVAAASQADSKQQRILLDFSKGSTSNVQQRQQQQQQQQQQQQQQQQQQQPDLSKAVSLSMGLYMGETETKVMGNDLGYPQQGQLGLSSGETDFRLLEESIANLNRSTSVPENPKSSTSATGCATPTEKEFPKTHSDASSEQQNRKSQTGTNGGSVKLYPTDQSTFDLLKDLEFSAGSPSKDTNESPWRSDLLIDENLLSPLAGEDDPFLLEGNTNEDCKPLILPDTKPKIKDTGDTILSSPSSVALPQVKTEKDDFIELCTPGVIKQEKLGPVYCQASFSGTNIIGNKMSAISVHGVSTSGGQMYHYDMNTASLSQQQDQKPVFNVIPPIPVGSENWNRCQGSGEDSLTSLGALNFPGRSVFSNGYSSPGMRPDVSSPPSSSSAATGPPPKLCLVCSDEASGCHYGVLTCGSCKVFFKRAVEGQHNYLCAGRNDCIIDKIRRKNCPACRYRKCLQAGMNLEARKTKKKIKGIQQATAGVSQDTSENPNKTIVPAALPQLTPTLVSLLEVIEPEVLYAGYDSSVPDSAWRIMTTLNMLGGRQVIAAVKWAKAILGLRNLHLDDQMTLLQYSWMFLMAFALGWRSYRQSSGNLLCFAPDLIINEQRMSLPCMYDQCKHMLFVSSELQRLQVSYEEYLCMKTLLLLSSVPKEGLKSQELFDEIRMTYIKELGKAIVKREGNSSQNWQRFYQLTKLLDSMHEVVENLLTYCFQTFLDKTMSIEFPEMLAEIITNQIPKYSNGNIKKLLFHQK
Description: Various hormonal activities of representative neuroactive steroids were further studied through testing their potential estrogenic, mineralocorticoid and glucocorticoid activities. These activities were analyzed by monitoring the ability of the compounds to inhibit binding of the steroid hormones to their respective hormone receptors.
For Table 4, brain cytosol fractions were prepared as for Table 3, and the compounds were incubated with 3 nM of ^3H-dexamethasone (the specific ligand for the glucocorticoid receptor).

GR complex = assay: [35S]TBPS binding assay (inhibition of [35S]TBPS binding, cerebral cortex P2 homogenate); parameters: species or system rat; settings: for IC50: 2 nM [35S]TBPS, rat cerebral cortex P2 homogenate; for IMAX: maximum inhibition of [35S]TBPS binding
How it was run: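 Rat (male Sprague-Dawley) cortical P2 homogenate (0.5 mg protein) in 50 mM Na/K phosphate pH 7.4, 200 mM NaCl, incubated with 2 nM [35S]TBPS plus steroid test compounds (DMSO) in presence of GABA plus (+)bicuculline, 25°C, 90 min. Filtration, scintillation counting; nonspecific binding defined with […].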

| Compound | ED50 (picrotoxin) | ED50 ((+)bicuculline) | ED50 (strychnine) | % of Inhibition [1] | inhibition (Glucocorticoid Receptors) | IC50 (GR complex) | IMAX (GR complex) |
| --- | --- | --- | --- | --- | --- | --- | --- |
| CC(=O)[C@H]1CC[C@H]2[C@@H]3CC[C@H]4C[C@H](O)CC[C@]4(C)[C@H]3CC[C@]12C [3α-Hydroxy-5α-pregnan-20-one, 3α-hydroxy-5α-pregnan-20-one] | 10.2 mg/kg | 12.3 mg/kg | > 300 mg/kg | 14% | 8.7% | 37 nM | 95% |
| C[C@]12CC[C@@H](O)C[C@@H]1CC[C@@H]1[C@@H]2CC[C@]2(C)[C@@H](C(=O)CO)CC[C@@H]12 [3α,21-dihydroxy-5α-pregnan-20-one] | 5.6 mg/kg | 17.8 mg/kg | > 300 mg/kg | 13% | 29.5% | 76 nM | 100% |

Source: EP1038880B1, “Androstanes and pregnanes for allosteric modulation of GABA receptor” (priority 1994, dated 1995)
